Literature values, collected in patent publication US8715648B2, “Method for treating obesity with anti-obesity formulations and omega 3 fatty acids for the reduction of body weight in cardiovascular disease patients (CVD) and diabetics” (Pivotal Therapeutics Inc., priority 2011, dated 2014).

Biological target: CB1R (Homo sapiens, UniProt P21554)
Conditions: in vivo

Sequence of CB1R (P21554 whole entry): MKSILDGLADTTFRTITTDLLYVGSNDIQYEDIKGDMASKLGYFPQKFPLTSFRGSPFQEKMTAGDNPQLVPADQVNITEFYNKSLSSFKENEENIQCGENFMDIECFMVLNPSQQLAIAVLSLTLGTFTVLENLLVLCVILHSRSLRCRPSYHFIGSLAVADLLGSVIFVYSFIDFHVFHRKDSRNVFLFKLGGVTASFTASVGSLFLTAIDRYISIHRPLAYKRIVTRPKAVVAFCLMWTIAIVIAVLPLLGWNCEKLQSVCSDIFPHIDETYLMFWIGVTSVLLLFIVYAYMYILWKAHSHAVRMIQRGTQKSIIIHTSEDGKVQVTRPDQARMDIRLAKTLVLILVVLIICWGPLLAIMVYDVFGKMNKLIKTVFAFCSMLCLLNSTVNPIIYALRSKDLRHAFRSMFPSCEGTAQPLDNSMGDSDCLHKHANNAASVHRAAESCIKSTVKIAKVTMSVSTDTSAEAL

In the case of `CCNC1(C(N)=O)CCN(c2ncnc3c2nc(-c2ccccc2Cl)n3-c2ccc(Cl)cc2)CC1.Cl` [CP-945,598], the “Reason for failure of phase III clinical trials” value is listed as “psychiatric adverse reactions, including severe depression and anxiety”.
